This is an account of results in US11518760B2 (Liverpool School of Tropical Medicine, priority 2017, dated 2022).

Assay [1] deals with Wolbachia in adult male Onchocerca ochengi. Kind of assay: Adult Onchocerca ochengi mouse model, Wolbachia wsp qPCR. Format: in vivo. Conditions: CB.17(BALB/c) SCID mice implanted with male O. ochengi, oral. From the text: Viable male Onchocerca ochengi were aseptically isolated from naturally parasitized cattle. Between 10-11 male Onchocerca were surgically implanted into the peritoneal cavity of CB.17(BALB/c) SCID mice under anaesthesia. […] 38 Days after O. ochengi surgical implantation, mice were necropsied to recover the live worms. Genomic DNA was extracted from individual adult worms (10/group) and quantification of the O. ochengi-specific Wolbachia surface protein (wsp) performed by quantitative PCR. Data in Table 6 is expressed as a reduction in Wolbachia load in comparison to the vehicle control group.

Assay [2] concerns Wolbachia in Brugia malayi larvae. Kind of assay: Larval Brugia malayi mouse model, Wolbachia wsp qPCR. Conditions: BALB/c IL4Rα−/− mice, oral, larvae recovered 14 days post-infection. Format: in vivo. From the text: In a larval Brugia malayi mouse model treatment groups (BALB/c IL4Rα−/− mice, 6-8 week old) received compounds by oral delivery for 7 to 14 days commencing on the day of intraperitoneal infection with Brugia malayi third-stage larvae. At 14 days post-infection, larvae were recovered from the peritoneal cavity, counted, and length measured. Genomic DNA was extracted from individual worms (10/group) and quantification of the Wolbachia surface protein (wBm-wsp) gene copy numbers performed by quantitative PCR.
Treatment dosage unit is mg/kg (MK) and duration stated in days (d). Abbreviations: DOX (doxycycline), bid (twice daily), Ms (mesylate). Data in Table 4 are expressed as a reduction in Wolbachia load in comparison to the vehicle control group.
On the technique in general: In qPCR the cycle at which signal appears reflects the starting amount.

Assay [3] deals with Wolbachia of the target parasite, Brugia malayi. The assay can be described thus: In vitro microfilariae (Mf) Brugia malayi screen, wsp/gst qPCR. Format: cell-based. Conditions: B. malayi Mf, 6 days. As to the method: An in vitro microfilariae (Mf) assay was used to screen against Wolbachia of the target parasite, Brugia malayi. The Mf were obtained by peritoneal lavage of gerbils (Meriones unguiculatus) harbouring a patent infection of Brugia malayi as described previously (Griffiths et al., 2010, Lab Animal).
Mf were purified using a PD-10 desalting column (Fisher) followed by centrifugation (1200 rpm for 5 minutes at room temperature) then re-suspended in filter-sterilised culture medium consisting of RPMI supplemented with heat-inactivated Foetal Calf Serum (HI-FCS), 1% Penicillin-Streptomycin and 1% Amphotericin B.
After determining the concentration of Mf, the stock solution was diluted in culture medium to ensure a final concentration of 8000 Mf/well of a 96 well plate (100 μl per well). Compounds to be tested (10 mM stock in 100% DMSO) were diluted to appropriate working concentrations in culture medium and 100 μl was added to the appropriate wells of the 96 well plate containing the Mf. Five replicates were used for each compound and each plate contained doxycycline (5 μM) and vehicle (DMSO) controls. The plates were incubated at 37° C., 5% CO2, for 6 days.
On day 6, a visual assessment of motility was performed and wells scored from 0 to 4 (where 0=no movement and 4=highly motile) in order to assess whether there were any direct effects against the Mf. To perform the anti-Wolbachia readout, DNA was extracted from each individual well using the QIAmp DNA Mini Kit (Qiagen) ‘DNA Purification from Tissues’ protocol.
The number of Wolbachia present in Mf was assessed by quantification of the Wolbachia surface protein (wsp) gene copy number and normalised to the nematode glutathione S-transferase (gst) gene by qPCR based on methods described by McGarry et al., 2004, Mol Biochem Parasitol. DNA samples were amplified in duplicate in the following 20 μl reactions containing 1× QuantiTect SYBR Green PCR master mix (Qiagen): for wsp, 0.3 μM each of forward ([…]) and reverse ([…]) primer, 3 mM MgCl2 and 2 μl of DNA. For gst, 0.35 μM of forward ([…]) and reverse primer (ATCACGGACGCCTTCACAG), 3.5 mM MgCl2 and 1 μl of DNA. qPCR was performed using the Bio-Rad CFX384 C1000 thermal cycler (Bio-Rad laboratories LTD) with a denaturation step of 95° C. for 15 min then 40 cycles at 95° C. for 15 s, 57° C. (gst) or 60° C. (wsp) for 30 s, and 72° C. for 30 s. Quantification was determined by Bio-Rad CFX manager software by comparing the DNA samples to that of a standard curve generated from serial dilution of plasmid DNA of the appropriate gene. Data in Table 3 are expressed as a reduction in Wolbachia load in comparison to the vehicle control group and normalized by positive control (doxycycline at 5 μM).

The mark [4] stands for this setting: dose/duration stands in the drawing (not visible).

For the molecule `C[C@H]1COCCN1c1nc(NCc2cccnc2C(F)(F)F)c2cccnc2n1` [drawing 702], the “% Wolbachia reduction cf median Vehicle” value in assay [1] (setting [4]) is reported as 96.2%.
Take `CC(C)N(C)c1nc(NCc2cccnc2C(F)(F)F)c2cccnc2n1` [drawing 688]: in assay [2] (setting [4]), the “% Wolbachia reduction cf median Vehicle” value came to 99.99%.
`CC1COCCN1c1nc(NCc2cccnc2C(F)(F)F)c2cccnc2n1` (stereo not shown) [drawing 689]: the “% Wolbachia reduction cf median Vehicle” value in assay [2] (setting [4]) is on record as 99.91%.
Regarding `C[C@H]1c2cccc(O)c2C(=O)C2=C(O)[C@]3(O)C(=O)C(C(N)=O)=C(O)[C@@H](N(C)C)[C@@H]3[C@@H](O)[C@@H]21` [DOX, doxycycline, reference compound], the results for the “% Reduction level normalised to DOX (5 μm)” value in assay [3] (500 nM) and in assay [3] (5 μM) were 92.9% and 100.0%, respectively. For the same molecule, the figures for the “% Wolbachia reduction cf. DMSO” value in assay [3] (500 nM) and in assay [3] (5 μM) were 80.0% and 89.6%, respectively. The “% Wolbachia reduction cf median Vehicle” value in assay [2] (25 MK bid + 14 d) is reported as 99.05%; in assay [1] (25 MK bid + 28 d), 98.7%.
For the molecule `FC1(F)CCN(c2nc(NCc3cccnc3C(F)(F)F)c3cccnc3n2)CC1` [drawing 690], the “% Wolbachia reduction cf median Vehicle” value in assay [2] (setting [4]) is 99.84%.
